Patent publication US12501864B2 (priority 2020, dated 2025)
Structures can show the parent of a compound that is named as a salt.

Details: in vivo

Q: With `O=C1OC2(c3ccc(O)cc3Oc3cc(O)ccc32)c2ccccc21` [Fluorescein, fluorescein disodium salt] as the compound, how does the “distribution by infection level” value read?
A: Its value is “greater in trees with lower infection levels compared to trees with high infection levels”.

Q: What about the “distribution in fruits vs leaves” value of the same compound?
A: The value was “higher in olive fruits than leaves”.

Q: What about the “distribution throughout the tree” value of the same compound?
A: Its value is “distributed evenly throughout the tree horizontally and vertically to all the sectors measured”.
